Read-outs that look alike come from different tables or passages of the source.
Columns and labels:
osteoclast precursors = experiment: In vitro osteoclastogenesis assay (M-CSF + RANKL, TRAP staining); type: cell-based, Balb/c mice; conditions: for % inhibition of osteoclast formation / Number of TRAP-positive multinuclear cells/well of 96 well plate (Mean ± SEM): 6 days; for Effect on RANKL-induced osteoclast differentiation / formation (in words): M-CSF and RANKL, TRAP-positive osteoclasts
From the text: For in vitro osteoclastogenesis bone marrow cells were isolated from 5- to 8-wk-old Balb/c mice. Mice were sacrificed by cervical dislocation and femora and tibiae were aseptically removed and dissected free of adherent soft tissues. The bone ends were cut, and the marrow cavity was flushed out with medium MEM from one end of the bone using a sterile 21-gauge needle. The bone marrow suspension was carefully agitated with a plastic Pasteur pipette to obtain a single-cell suspension. The cells were washed twice and resuspended (10^6 cells/ml) in αMEM containing 10% FBS. […] After 24 h, nonadherent cells were harvested and layered on a Ficoll-Hypaque gradient. Cells at the gradient interface were collected, washed and resuspended (5×10^5/ml) in αMEM containing 10% FBS. In this study, we called these stromal cell-free, M-CSF-dependent, nonadherent cells as osteoclast precursors. These osteoclast precursors were added to 96-well plates (100 μl/well) containing plastic coverslips. Each well received further 100 μl of medium containing M-CSF (30 ng/ml), RANKL (30 ng/ml) without or with various concentrations of purified compound. Cultures were fed every 2-3 days and after incubation for 6 days osteoclast formation was evaluated by tartrate-resistant acid phosphatase (TRAP) staining. The number of TRAP-positive multinucleated cells (MNCs) containing 3 or more nuclei was scored.
TRAP is preferentially expressed at high levels in osteoclast and is considered, especially in the mouse, to be an osteoclast marker. Cytochemical staining for TRAP is widely used for identifying the osteoclasts in vivo and in vitro. It is claimed to be specific for osteoclasts in bone. After incubation, cells on cover slips were washed in PBS, fixed in 10% formalin for 10 min and stained for acid phosphatase in the presence of 0.05 M sodium tartrate. The substrate used was napthol AS-BI phosphate. Only those cells that were strongly TRAP-positive (dark red) counted by light microscopy.

[1] = test system: mouse bone marrow leukocyte precursors; experiment: Differentiation of dendritic cells from bone marrow leukocyte precursors, flow cytometry of cell surface markers; type: cell-based, BALB/c mice
Protocol: (§1) The fine suspension obtained above was transferred into a 50 ml sterile centrifuge tube and centrifuged for 10 minutes at 1200 rpm. […] The pellets were washed using HBSS wash buffer and then centrifuged again for 10 minutes at 1200 rpm. This process was repeated for one more time. […] This suspension was then finally passed through a MACS (Magnetic Activated Cell Sorting) column to get essentially and predominately leukocyte precursors.
In order to evaluate the upregulation of various cell surface markers associated with Dendritic cells, flow cytometry on the cells stimulated with GM-CSF or the compound was carried out using fluorescent labeled antibodies to various molecules (CD11c, I-A^d, CD80, CD86, H2-D^d, CD54, CD40).
The hind limbs of the mouse were removed carefully and placed in a Petri dish with HBSS (Hanks Balanced Saline Solution) wash buffer. The tibias and femurs were cleared of all surrounding and attached tissues. This was followed by chipping the ends of bones. The bone marrow was flushed out by injecting HBSS solution into the bone with the help of a hypodermal syringe (No. 26 gauge). The bone marrow was finally made into a fine suspension by syringing in and out of the fluid several times using an 18 gauge syringe needle.

[2] = test system: mouse bone marrow leukocyte precursors; experiment: Viability of the stimulated BM precursor cultures; type: cell-based, BALB/c mice; set-up: Viability, % of Viable cells: reference not given here
Protocol: as §1

[3] = M-CSF + RANKL + compound 0.5 μg/ml
[4] = M-CSF + RANKL + compound 1.5 μg/ml
[5] = M-CSF + RANKL + compound 3.0 μg/ml
[6] = M-CSF + RANKL + compound 5.0 μg/ml
[7] = Table A, 15 ng/ml of GM-CSF or 50 micro gram per ml of the synthetic compound, 48 h
[8] = Table B (Examples 6-8), concentration not given

`O=C([O-])CCC[C@H](NS(=O)(=O)[O-])C(=O)[O-].O=C([O-])CCC[C@H](NS(=O)(=O)[O-])C(=O)[O-].[Ca+2].[Ca+2].[Ca+2]` [L-homoglutamic acid, N-sulphonic acid, calcium salt] was tested, and the “% inhibition of osteoclast formation” value (osteoclast precursors; [3]) was 5.55%, the “Number of TRAP-positive multinuclear cells/well of 96 well plate (Mean ± SEM)” value (osteoclast precursors; [3]) was 138.57 ± 7.95 cells/well and the “% inhibition of osteoclast formation” value (osteoclast precursors; [4]) was 27.60%. The “Number of TRAP-positive multinuclear cells/well of 96 well plate (Mean ± SEM)” value (osteoclast precursors; [4]) was 106.23 ± 10.47 cells/well, the “% inhibition of osteoclast formation” value (osteoclast precursors; [5]) was 46.40% and the “Number of TRAP-positive multinuclear cells/well of 96 well plate (Mean ± SEM)” value (osteoclast precursors; [5]) was 78.57 ± 13.57 cells/well. For the same compound, the “% inhibition of osteoclast formation” value (osteoclast precursors; [6]) was 68.50% and the “Number of TRAP-positive multinuclear cells/well of 96 well plate (Mean ± SEM)” value (osteoclast precursors; [6]) was 46.22 ± 10.00 cells/well.
For `O=C([O-])CC[C@H](NS(=O)(=O)[O-])C(=O)[O-].O=C([O-])CC[C@H](NS(=O)(=O)[O-])C(=O)[O-].[Ca+2].[Ca+2].[Ca+2]` [compound 1, L-glutamyl-N-sulphonic acid, Ca salt], the “Induction of differentiation of dendritic cells from BM precursors (in words)” value [1] was “Induces Differentiation of Dendritic Cells”, the “Concentration of maximum up regulation of cell surface densities of CD11c, CD80, CD54” value ([1]; incubation of BM leukocyte precursors with different concentrations) was 200 mM and the “Induction of differentiation of dendritic cells from BM precursors (in words)” value ([1]; listed as the compound) was “induces the differentiation of DCs from BM precursors”. The “Viability of the cultures at the end of the incubation period” value ([2]; 200 mM of the synthetic compound, 48 h (embodiment text)) was “more than 99%”, the “Viability of the cultures at the end of the incubation period” value ([2]; 50 micro gram per ml of the synthetic compound, 48 h) was > 99% and the “Viability, % of Viable cells” value [2, 7] was 150%. For the same compound, the “Effect on RANKL-induced osteoclast differentiation / formation (in words)” value (osteoclast precursors) was “dose dependent inhibition in the number of osteoclast cells generated”.
For `O=C(O)C[C@H](NS(=O)(=O)O)C(=O)O` [example 3, L-aspartyl, N-sulfonic acid], the “Effect on RANKL-induced osteoclast differentiation / formation (in words)” value (osteoclast precursors) was “significantly inhibited osteoclast formation”.
In the case of “GM-CSF: Granulocyte Macrophage-Colony Stimulating Factor, growth factor conventionally used to generate DCs in vitro; comparison”, the “Fold increase in Relative MFI over unstimulated control, surface marker CD11c” value [1, 7] is reported as 5.0 fold, the “Fold increase in Relative MFI over unstimulated control, surface marker CD54” value [1, 7] is reported as 4.0 fold and the “Fold increase in Relative MFI over unstimulated control, surface marker CD80” value [1, 7] is reported as 3.3 fold. For the same compound, the “Fold increase in Relative MFI over unstimulated control, surface marker H-2D^d” value [1, 7] was 2.0 fold, the “Fold increase in Relative MFI over unstimulated control, surface marker CD11c” value [1, 8] was 5.0 fold and the “Fold increase in Relative MFI over unstimulated control, surface marker CD54” value [1, 8] was 4.0 fold. For the same compound, the “Fold increase in Relative MFI over unstimulated control, surface marker CD80” value [1, 8] was 3.3 fold, the “Fold increase in Relative MFI over unstimulated control, surface marker H-2D^d” value [1, 8] was 2.0 fold and the “Viability, % of Viable cells” value [2, 7] was 180%. For the same compound, the “Viability, % of Viable cells” value [2, 8] was 180%.

Source: US20050085547A1, “Molecules for inducing differentiation of dendritic cells” (Council of Scientific & Industrial Research, priority 2003, published 2005)
